The values that follow come from patent EP1571449A1 (priority 2004, dated 2005).

Read-outs that look alike come from different tables or passages of the source.

In one test the target is PrP^C (Homo sapiens, UniProt P04156). It is filed as binding.
Another test concerns the target plasma PrP^C (Homo sapiens, UniProt P04156). The settings on record: plasma mixed with 400 µM CuCl2, copper containing gradient, 16 h at 100,000 x g, 4 °C.

Turning to `O=S(=O)([O-])[O-].[Zn+2]` [ZnSO4], the “effect on detection of bound prion proteins (assay sensitivity)” value at PrP^C is recorded as “improvement in sensitivity”.
Still for that read-out and setting: to `O=CO` [formic acid] belongs “had no effect on the assay”.
Regarding `[Cl][Mn][Cl]` [MnCl2], on PrP^C, the “effect on detection of bound prion proteins (assay sensitivity)” value is reported as “improvement in sensitivity” and the “times higher concentration needed for the same signal increasing effect as compared to zinc” value is on record as “about 12 times”.
In the case of `OO` [H2O2, hydrogen peroxide], at PrP^C, the “dose relation of the effect on assay sensitivity” value is reported as “dose-related effects on the assay sensitivity” and the “effect on detection of bound prion proteins (assay sensitivity)” value was “enhanced the detection of bound prion proteins”.
Turning to `O=S(=O)([O-])[O-].[Cu+2]` [CuSO4], at PrP^C, the “dose relation of the effect on assay sensitivity” value was “dose-related effects on the assay sensitivity”, the “effect on detection of bound prion proteins (assay sensitivity)” value is recorded as “improvement in sensitivity”, the increase in sensitivity entry was “more than 3000 fold” and the “plasma dilution at which twice the backgound signal was detected” value is listed as 156250 times diluted.
With `O=C(O)CN(CCN(CC(=O)O)CC(=O)O)CC(=O)O` [EDTA, reference compound], at PrP^C, the “PrP^C detection, assay 4” value is “blocking effects”; the “PrP^C detection, assay 5” value is “complete inhibition of the copper effects”; the “PrP^C detection, assay 6” value is reported as “the copper-induced changes of PrP^C disappeared”; the “PrP^C detection, assay 7” value was “improved detection of PrP^C was observed”. The “effect of EDTA on the copper-induced assay sensitivity increase” value at PrP^C is recorded as “dose-related reduction of copper-induced assay sensitivity increase”.
Take `[Cl][Cu][Cl]` [CuCl2]: on PrP^C, the “PrP^C detection, assay 2” value is on record as “much more improved detection of PrP^C” and the “PrP^C detection, assay 3” value is “slightly worse detection of PrP^C as compared to assay 2”. Further, the “effect on detection of bound prion proteins (assay sensitivity)” value on PrP^C (15 min) is “improvement in sensitivity”. Further, the “migration pattern of PrP^C immunoreactivity in sucrose gradient” value on plasma PrP^C is reported as “the high molecular weight peak, present in EDTA plasma, disappeared”.
